Assay results published in ChEMBL document CHEMBL4507316 (2021).

What was measured:
[1] = target: Insulin receptor (Homo sapiens) (UniProt P06213); experiment: INS-R ProQinase selectivity panel; settings: Compound concentration 1.0 uM
[2] = target: Serine/threonine-protein kinase TAO3 (Homo sapiens) (UniProt Q9H2K8); experiment: TAOK3 ProQinase selectivity panel; settings: Compound concentration 1.0 uM
[3] = target: Alpha-1B adrenergic receptor (Homo sapiens) (UniProt P35368); settings: Compound concentration 10.0 uM
[4] = test system: Epidermal growth factor receptor (Homo sapiens), P00533 [UNDEFINED MUTATION]; experiment: EGF-R d746-750 ProQinase selectivity panel; settings: Compound concentration 1.0 uM
[5] = target: 5-hydroxytryptamine receptor 2C (Homo sapiens) (UniProt P28335); settings: Compound concentration 10.0 uM
[6] = target: LIM domain kinase 1 (Homo sapiens) (UniProt P53667); experiment: LIMK1 ProQinase selectivity panel; settings: Compound concentration 1.0 uM
[7] = target: Mitogen-activated protein kinase 9 (Homo sapiens) (UniProt P45984); experiment: JNK2 ProQinase selectivity panel; settings: Compound concentration 1.0 uM
[8] = target: Ribosomal protein S6 kinase beta-2 (Homo sapiens) (UniProt Q9UBS0); experiment: S6K-beta ProQinase selectivity panel; settings: Compound concentration 1.0 uM
[9] = target: Serine/threonine-protein kinase Chk2 (Homo sapiens) (UniProt O96017); experiment: CHK2 ProQinase selectivity panel; settings: Compound concentration 1.0 uM
Chain of Serine/threonine-protein kinase Chk2 (Homo sapiens) (O96017 whole entry): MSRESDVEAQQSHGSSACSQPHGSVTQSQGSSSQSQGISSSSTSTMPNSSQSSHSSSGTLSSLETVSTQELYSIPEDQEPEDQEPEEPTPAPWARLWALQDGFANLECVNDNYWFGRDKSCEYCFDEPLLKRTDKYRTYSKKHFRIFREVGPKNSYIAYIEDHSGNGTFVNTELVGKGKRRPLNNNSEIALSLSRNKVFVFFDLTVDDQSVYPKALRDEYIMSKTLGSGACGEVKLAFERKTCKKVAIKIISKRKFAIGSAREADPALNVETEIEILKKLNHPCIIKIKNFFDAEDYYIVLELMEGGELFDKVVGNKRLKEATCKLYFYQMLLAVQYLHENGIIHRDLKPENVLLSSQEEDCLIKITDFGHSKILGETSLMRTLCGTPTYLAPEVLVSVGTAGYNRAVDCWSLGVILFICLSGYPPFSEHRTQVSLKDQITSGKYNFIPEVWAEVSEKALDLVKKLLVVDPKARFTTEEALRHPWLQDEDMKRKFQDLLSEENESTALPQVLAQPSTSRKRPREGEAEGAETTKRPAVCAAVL

[10] = target: Histamine H1 receptor (Homo sapiens) (UniProt P35367); settings: Compound concentration 10.0 uM
[11] = target: Protein kinase C theta type (Homo sapiens) (UniProt Q04759); experiment: PKC-theta ProQinase selectivity panel; settings: Compound concentration 1.0 uM
[12] = target: Serine/threonine-protein kinase B-raf (Homo sapiens) (UniProt P15056); experiment: B-RAF wt ProQinase selectivity panel; settings: Compound concentration 1.0 uM
[13] = target: Alpha-2B adrenergic receptor (Homo sapiens) (UniProt P18089); settings: Compound concentration 10.0 uM
[14] = target: TGF-beta receptor type-1 (Homo sapiens) (UniProt P36897); experiment: TGFB-R1 ProQinase selectivity panel; settings: Compound concentration 1.0 uM
Chain of TGF-beta receptor type-1 (Homo sapiens) (P36897 whole entry): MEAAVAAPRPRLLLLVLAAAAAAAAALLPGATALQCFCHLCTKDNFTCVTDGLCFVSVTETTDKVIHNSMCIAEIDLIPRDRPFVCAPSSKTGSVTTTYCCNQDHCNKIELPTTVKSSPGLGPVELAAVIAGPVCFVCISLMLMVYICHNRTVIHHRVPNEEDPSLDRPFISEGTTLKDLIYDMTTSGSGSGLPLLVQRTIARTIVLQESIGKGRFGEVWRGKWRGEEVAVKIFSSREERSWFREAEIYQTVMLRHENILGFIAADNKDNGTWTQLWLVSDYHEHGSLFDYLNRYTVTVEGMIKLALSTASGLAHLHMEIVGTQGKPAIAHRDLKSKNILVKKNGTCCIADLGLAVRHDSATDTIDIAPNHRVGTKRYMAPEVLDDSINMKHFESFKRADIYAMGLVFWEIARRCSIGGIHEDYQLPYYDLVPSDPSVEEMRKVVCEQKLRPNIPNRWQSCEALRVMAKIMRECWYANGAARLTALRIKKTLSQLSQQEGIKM

[15] = test system: Dual specificity mitogen-activated protein kinase kinase 6 (Homo sapiens), P52564 [S207D,T211D]; experiment: MKK6 S207D/T211D ProQinase selectivity panel; settings: Compound concentration 1.0 uM
[16] = target: Tyrosine-protein kinase Fgr (Homo sapiens) (UniProt P09769); experiment: FGR ProQinase selectivity panel; settings: Compound concentration 1.0 uM
[17] = target: Mitogen-activated protein kinase kinase kinase kinase 4 (Homo sapiens) (UniProt O95819); experiment: MAP4K4 ProQinase selectivity panel; settings: Compound concentration 1.0 uM
[18] = target: Mitogen-activated protein kinase kinase kinase 2 (Homo sapiens) (UniProt Q9Y2U5); experiment: MEKK2 ProQinase selectivity panel; settings: Compound concentration 1.0 uM
Chain of Mitogen-activated protein kinase kinase kinase 2 (Homo sapiens) (Q9Y2U5 whole entry): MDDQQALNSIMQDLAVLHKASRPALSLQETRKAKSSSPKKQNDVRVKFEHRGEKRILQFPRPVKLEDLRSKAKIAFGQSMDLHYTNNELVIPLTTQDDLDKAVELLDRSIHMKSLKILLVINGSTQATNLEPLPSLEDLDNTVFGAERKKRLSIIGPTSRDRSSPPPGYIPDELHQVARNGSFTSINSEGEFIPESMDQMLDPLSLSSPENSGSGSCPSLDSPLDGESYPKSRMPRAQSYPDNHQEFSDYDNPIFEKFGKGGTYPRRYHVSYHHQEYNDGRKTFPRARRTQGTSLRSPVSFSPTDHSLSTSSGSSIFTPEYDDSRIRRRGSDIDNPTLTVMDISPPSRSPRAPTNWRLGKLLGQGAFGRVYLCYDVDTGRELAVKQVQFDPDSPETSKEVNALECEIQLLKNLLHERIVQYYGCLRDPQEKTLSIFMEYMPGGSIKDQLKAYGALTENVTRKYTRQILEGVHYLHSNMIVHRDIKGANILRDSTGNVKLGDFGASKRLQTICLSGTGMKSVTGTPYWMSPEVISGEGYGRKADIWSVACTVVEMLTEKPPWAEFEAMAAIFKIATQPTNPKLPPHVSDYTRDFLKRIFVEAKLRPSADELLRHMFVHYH

[19] = test system: Epidermal growth factor receptor (Homo sapiens), P00533 [L858R]; experiment: EGF-R L858R ProQinase selectivity panel; settings: Compound concentration 1.0 uM
[20] = target: Ribosomal protein S6 kinase alpha-2 (Homo sapiens) (UniProt Q15349); experiment: RPS6KA2 ProQinase selectivity panel; settings: Compound concentration 1.0 uM
[21] = target: Muscle, skeletal receptor tyrosine-protein kinase (Homo sapiens) (UniProt O15146); experiment: MUSK ProQinase selectivity panel; settings: Compound concentration 1.0 uM
[22] = target: Protein kinase C alpha type (Homo sapiens) (UniProt P17252); experiment: PKC-alpha ProQinase selectivity panel; settings: Compound concentration 1.0 uM
[23] = target: High affinity nerve growth factor receptor (Homo sapiens) (UniProt P04629); experiment: TRK-A ProQinase selectivity panel; settings: Compound concentration 1.0 uM
[24] = target: Mitogen-activated protein kinase 14 (Homo sapiens) (UniProt Q16539); experiment: p38-alpha ProQinase selectivity panel; settings: Compound concentration 1.0 uM
[25] = target: Serine/threonine-protein kinase 3 (Homo sapiens) (UniProt Q13188); experiment: MST2 ProQinase selectivity panel; settings: Compound concentration 1.0 uM
[26] = target: CDK1/Cyclin E (Homo sapiens) (UniProt P06493+P24864); experiment: CDK1/CycE ProQinase selectivity panel; type: protein-complex assay; settings: Compound concentration 1.0 uM
Chain of CDK1/Cyclin E (Homo sapiens) (P06493 whole entry, looked up): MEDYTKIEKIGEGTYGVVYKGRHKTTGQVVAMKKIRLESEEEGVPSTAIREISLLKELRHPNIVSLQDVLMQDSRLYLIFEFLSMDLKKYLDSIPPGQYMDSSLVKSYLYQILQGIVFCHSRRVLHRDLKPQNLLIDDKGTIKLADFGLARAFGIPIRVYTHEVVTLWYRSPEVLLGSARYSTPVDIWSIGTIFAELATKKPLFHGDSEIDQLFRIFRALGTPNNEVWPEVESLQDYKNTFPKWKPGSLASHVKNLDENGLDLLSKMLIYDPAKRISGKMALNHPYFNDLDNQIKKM
Chain of CDK1/Cyclin E (Homo sapiens) (P24864 whole entry, looked up): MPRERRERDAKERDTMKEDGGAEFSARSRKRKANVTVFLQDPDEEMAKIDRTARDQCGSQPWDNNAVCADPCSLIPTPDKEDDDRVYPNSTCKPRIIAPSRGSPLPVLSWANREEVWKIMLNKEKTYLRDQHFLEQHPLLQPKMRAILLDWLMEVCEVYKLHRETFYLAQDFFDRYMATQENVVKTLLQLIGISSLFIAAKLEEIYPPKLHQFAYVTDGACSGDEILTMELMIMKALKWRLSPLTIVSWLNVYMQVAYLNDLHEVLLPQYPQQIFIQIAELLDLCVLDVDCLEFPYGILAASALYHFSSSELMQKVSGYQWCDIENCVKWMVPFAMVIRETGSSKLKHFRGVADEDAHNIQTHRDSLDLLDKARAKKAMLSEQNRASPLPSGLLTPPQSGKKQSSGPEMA

[27] = target: SRSF protein kinase 2 (Homo sapiens) (UniProt P78362); experiment: SRPK2 ProQinase selectivity panel; settings: Compound concentration 1.0 uM
Chain of SRSF protein kinase 2 (Homo sapiens) (P78362 whole entry, looked up): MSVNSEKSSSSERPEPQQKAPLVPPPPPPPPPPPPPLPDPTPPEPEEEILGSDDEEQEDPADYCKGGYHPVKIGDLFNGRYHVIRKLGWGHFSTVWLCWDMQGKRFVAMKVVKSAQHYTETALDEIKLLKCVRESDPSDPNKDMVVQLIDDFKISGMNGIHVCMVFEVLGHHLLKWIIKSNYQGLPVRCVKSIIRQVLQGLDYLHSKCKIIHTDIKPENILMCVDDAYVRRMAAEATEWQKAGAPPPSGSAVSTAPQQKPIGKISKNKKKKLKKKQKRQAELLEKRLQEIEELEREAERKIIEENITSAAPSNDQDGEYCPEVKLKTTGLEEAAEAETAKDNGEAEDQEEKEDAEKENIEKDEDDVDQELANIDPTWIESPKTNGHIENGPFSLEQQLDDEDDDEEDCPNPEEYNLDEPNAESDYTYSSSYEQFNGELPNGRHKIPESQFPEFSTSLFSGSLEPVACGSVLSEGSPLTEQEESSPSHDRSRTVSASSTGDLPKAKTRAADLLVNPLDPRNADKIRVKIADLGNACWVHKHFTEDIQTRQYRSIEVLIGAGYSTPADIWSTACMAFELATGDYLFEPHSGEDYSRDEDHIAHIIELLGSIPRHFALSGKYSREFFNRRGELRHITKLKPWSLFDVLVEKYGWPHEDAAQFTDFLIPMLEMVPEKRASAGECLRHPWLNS

[28] = target: Serine/threonine-protein kinase N2 (Homo sapiens) (UniProt Q16513); experiment: PRK2 ProQinase selectivity panel; settings: Compound concentration 1.0 uM
[29] = target: Sodium-dependent serotonin transporter (Homo sapiens) (UniProt P31645); settings: Compound concentration 10.0 uM
[30] = test system: Tyrosine-protein kinase ABL1 (Homo sapiens), P00519 [F317I]; experiment: ABL1 F317I ProQinase selectivity panel; settings: Compound concentration 1.0 uM
Chain of Tyrosine-protein kinase ABL1 (Homo sapiens), P00519 [F317I] (P00519 whole entry F317I): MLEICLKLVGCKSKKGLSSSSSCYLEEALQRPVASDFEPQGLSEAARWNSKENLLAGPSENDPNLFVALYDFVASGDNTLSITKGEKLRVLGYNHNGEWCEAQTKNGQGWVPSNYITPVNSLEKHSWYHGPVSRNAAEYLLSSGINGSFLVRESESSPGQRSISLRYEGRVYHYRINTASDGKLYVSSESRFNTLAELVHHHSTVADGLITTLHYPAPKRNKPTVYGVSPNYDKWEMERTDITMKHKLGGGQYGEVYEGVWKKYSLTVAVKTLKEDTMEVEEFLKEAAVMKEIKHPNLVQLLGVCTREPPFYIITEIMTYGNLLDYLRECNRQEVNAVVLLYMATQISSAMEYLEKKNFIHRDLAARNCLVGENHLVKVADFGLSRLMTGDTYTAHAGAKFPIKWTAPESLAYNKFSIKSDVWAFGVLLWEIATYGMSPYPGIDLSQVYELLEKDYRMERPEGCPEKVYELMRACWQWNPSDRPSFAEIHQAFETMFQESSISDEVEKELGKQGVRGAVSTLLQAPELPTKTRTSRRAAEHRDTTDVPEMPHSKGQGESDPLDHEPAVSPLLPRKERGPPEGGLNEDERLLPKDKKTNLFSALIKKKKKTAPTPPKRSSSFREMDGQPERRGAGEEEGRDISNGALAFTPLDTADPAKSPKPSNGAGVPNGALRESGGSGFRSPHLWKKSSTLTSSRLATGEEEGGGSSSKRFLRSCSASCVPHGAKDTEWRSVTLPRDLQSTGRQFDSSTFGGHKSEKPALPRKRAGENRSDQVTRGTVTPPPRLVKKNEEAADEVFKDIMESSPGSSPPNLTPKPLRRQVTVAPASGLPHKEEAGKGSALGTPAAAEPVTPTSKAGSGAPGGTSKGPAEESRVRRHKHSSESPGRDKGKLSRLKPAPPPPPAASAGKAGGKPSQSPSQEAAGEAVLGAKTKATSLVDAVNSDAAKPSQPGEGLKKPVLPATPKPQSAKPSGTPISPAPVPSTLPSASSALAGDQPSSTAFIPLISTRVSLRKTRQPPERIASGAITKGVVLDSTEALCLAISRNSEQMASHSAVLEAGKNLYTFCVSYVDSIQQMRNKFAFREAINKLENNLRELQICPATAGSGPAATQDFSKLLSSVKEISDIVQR

[31] = target: Tyrosine-protein kinase BTK (Homo sapiens) (UniProt Q06187); experiment: BTK ProQinase selectivity panel; settings: Compound concentration 1.0 uM
[32] = target: Serine/threonine-protein kinase Nek1 (Homo sapiens) (UniProt Q96PY6); experiment: NEK1 ProQinase selectivity panel; settings: Compound concentration 1.0 uM
[33] = target: Rho-associated protein kinase 1 (Homo sapiens) (UniProt Q13464); experiment: ROCK1 ProQinase selectivity panel; settings: Compound concentration 1.0 uM
[34] = target: Ribosomal protein S6 kinase alpha-5 (Homo sapiens) (UniProt O75582); experiment: RPS6KA5 ProQinase selectivity panel; settings: Compound concentration 1.0 uM
[35] = target: Ephrin type-B receptor 2 (Homo sapiens) (UniProt P29323); experiment: EPHB2 ProQinase selectivity panel; settings: Compound concentration 1.0 uM
[36] = test system: Epidermal growth factor receptor (Homo sapiens), P00533 [G719S]; experiment: EGF-R G719S ProQinase selectivity panel; settings: Compound concentration 1.0 uM
[37] = target: Dual specificity protein kinase TTK (Homo sapiens) (UniProt P33981); experiment: TTK ProQinase selectivity panel; settings: Compound concentration 1.0 uM
[38] = target: Serine/threonine-protein kinase Sgk2 (Homo sapiens) (UniProt Q9HBY8); experiment: SGK2 ProQinase selectivity panel; settings: Compound concentration 1.0 uM
[39] = target: STE20-like serine/threonine-protein kinase (Homo sapiens) (UniProt Q9H2G2); experiment: SLK ProQinase selectivity panel; settings: Compound concentration 1.0 uM
[40] = target: Tyrosine-protein kinase receptor UFO (Homo sapiens) (UniProt P30530); experiment: AXL ProQinase selectivity panel; settings: Compound concentration 1.0 uM
[41] = target: Ephrin type-A receptor 3 (Homo sapiens) (UniProt P29320); experiment: EPHA3 ProQinase selectivity panel; settings: Compound concentration 1.0 uM
[42] = target: Serine/threonine-protein kinase PLK1 (Homo sapiens) (UniProt P53350); experiment: PLK1 ProQinase selectivity panel; settings: Compound concentration 1.0 uM
[43] = target: MAP kinase-activated protein kinase 3 (Homo sapiens) (UniProt Q16644); experiment: MAPKAPK3 ProQinase selectivity panel; settings: Compound concentration 1.0 uM
Chain of MAP kinase-activated protein kinase 3 (Homo sapiens) (Q16644 whole entry, looked up): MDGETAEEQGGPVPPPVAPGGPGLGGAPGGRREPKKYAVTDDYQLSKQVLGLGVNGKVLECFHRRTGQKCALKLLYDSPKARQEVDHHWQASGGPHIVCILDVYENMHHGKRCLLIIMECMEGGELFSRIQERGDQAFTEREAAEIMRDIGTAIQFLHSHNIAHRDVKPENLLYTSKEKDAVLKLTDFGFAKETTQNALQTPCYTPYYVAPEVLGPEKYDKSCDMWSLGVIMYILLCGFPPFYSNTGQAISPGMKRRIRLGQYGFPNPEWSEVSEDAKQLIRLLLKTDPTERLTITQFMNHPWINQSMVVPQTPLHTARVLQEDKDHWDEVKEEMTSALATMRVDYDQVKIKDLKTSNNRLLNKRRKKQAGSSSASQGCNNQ

[44] = target: D(3) dopamine receptor (Homo sapiens) (UniProt P35462); settings: Compound concentration 10.0 uM
[45] = target: cGMP-dependent protein kinase 2 (Homo sapiens) (UniProt Q13237); experiment: PRKG2 ProQinase selectivity panel; settings: Compound concentration 1.0 uM
[46] = target: Activated CDC42 kinase 1 (Homo sapiens) (UniProt Q07912); experiment: ACK1 ProQinase selectivity panel; settings: Compound concentration 1.0 uM
[47] = target: Serine/threonine-protein kinase 24 (Homo sapiens) (UniProt Q9Y6E0); experiment: MST3 ProQinase selectivity panel; settings: Compound concentration 1.0 uM
[48] = target: Mitogen-activated protein kinase kinase kinase 14 (Homo sapiens) (UniProt Q99558); experiment: NIK ProQinase selectivity panel; settings: Compound concentration 1.0 uM
[49] = target: Ephrin type-A receptor 2 (Homo sapiens) (UniProt P29317); experiment: EPHA2 ProQinase selectivity panel; settings: Compound concentration 1.0 uM
[50] = target: 5-hydroxytryptamine receptor 6 (Homo sapiens) (UniProt P50406); settings: Compound concentration 10.0 uM
Chain of 5-hydroxytryptamine receptor 6 (Homo sapiens) (P50406 whole entry): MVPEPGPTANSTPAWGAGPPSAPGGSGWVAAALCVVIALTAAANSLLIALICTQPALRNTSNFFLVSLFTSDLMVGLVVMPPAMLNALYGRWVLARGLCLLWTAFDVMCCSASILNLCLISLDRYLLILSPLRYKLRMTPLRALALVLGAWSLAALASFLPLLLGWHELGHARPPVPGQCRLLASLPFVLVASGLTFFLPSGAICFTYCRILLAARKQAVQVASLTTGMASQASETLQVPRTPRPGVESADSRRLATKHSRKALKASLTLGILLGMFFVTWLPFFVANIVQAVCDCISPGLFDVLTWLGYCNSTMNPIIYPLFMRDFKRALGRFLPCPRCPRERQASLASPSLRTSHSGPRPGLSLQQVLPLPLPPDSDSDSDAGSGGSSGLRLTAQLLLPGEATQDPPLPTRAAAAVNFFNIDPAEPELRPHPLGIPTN

O=C1c2ccc(Nc3ccc(F)cc3F)cc2CCc2ccc(OC[C@H](O)CO)cc21 [Skepinone-L]
inactive: % Residual activity with Skepinone-L [1] 101% | % Residual activity with Skepinone-L [2] 102% | inhibition [3] 5.52% | % Residual activity with Skepinone-L [4] 100% | inhibition [5] 24% | % Residual activity with Skepinone-L [6] 109% | % Residual activity with Skepinone-L [7] 58% | % Residual activity with Skepinone-L [8] 89% | % Residual activity with Skepinone-L [9] 89% | inhibition [10] 12.7% | % Residual activity with Skepinone-L [11] 99% | % Residual activity with Skepinone-L [12] 112% | inhibition [13] 4.37% | % Residual activity with Skepinone-L [14] 93% | % Residual activity with Skepinone-L [15] 120% | % Residual activity with Skepinone-L [16] 100% | % Residual activity with Skepinone-L [17] 79% | % Residual activity with Skepinone-L [18] 89% | % Residual activity with Skepinone-L [19] 89% | % Residual activity with Skepinone-L [20] 90% | % Residual activity with Skepinone-L [21] 106% | % Residual activity with Skepinone-L [22] 96% | % Residual activity with Skepinone-L [23] 111% | % Residual activity with Skepinone-L [24] 0% | % Residual activity with Skepinone-L [25] 83% | % Residual activity with Skepinone-L [26] 87% | % Residual activity with Skepinone-L [27] 101% | % Residual activity with Skepinone-L [28] 95% | inhibition [29] 20.7% | % Residual activity with Skepinone-L [30] 102% | % Residual activity with Skepinone-L [31] 100% | % Residual activity with Skepinone-L [32] 83% | % Residual activity with Skepinone-L [33] 97% | % Residual activity with Skepinone-L [34] 77% | % Residual activity with Skepinone-L [35] 91% | % Residual activity with Skepinone-L [36] 96% | % Residual activity with Skepinone-L [37] 83% | % Residual activity with Skepinone-L [38] 89% | % Residual activity with Skepinone-L [39] 39% | % Residual activity with Skepinone-L [40] 100% | % Residual activity with Skepinone-L [41] 107% | % Residual activity with Skepinone-L [42] 97% | % Residual activity with Skepinone-L [43] 95% | inhibition [44] -7.71% | % Residual activity with Skepinone-L [45] 94% | % Residual activity with Skepinone-L [46] 108% | % Residual activity with Skepinone-L [47] 106% | % Residual activity with Skepinone-L [48] 96% | % Residual activity with Skepinone-L [49] 119% | inhibition [50] 14.8%
